Where two headings read alike, the source gives them in different places.

What all share (assay type): cell-based
In assay [1] the target is T1, glucocorticoid receptor (GR) (Homo sapiens, UniProt P04150).
T1 sequence (P04150 521-777): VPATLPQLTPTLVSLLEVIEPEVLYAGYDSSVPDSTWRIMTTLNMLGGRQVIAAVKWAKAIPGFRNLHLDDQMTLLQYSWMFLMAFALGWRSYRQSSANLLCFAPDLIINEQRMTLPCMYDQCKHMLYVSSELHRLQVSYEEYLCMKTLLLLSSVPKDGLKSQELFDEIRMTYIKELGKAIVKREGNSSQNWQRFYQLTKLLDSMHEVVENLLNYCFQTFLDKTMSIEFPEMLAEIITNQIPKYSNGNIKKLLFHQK
The assay is described as follows: Assay for agonist activity on glucocorticoid receptor (luciferase reporter, HEK293 cells transfected with pBIND-GR plasmid). In a few lines: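 HEK293 cells transfected with pBIND-GR, seeded in phenol red-free DMEM with 5% charcoal-stripped serum, then exposed to compounds in a 10-point, 4-fold dilution series from 10 µM, in duplicate. Luciferase luminescence read after incubation; EC50 from nonlinear fit. Vehicle blank: 0.1% DMSO.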
For orientation: Reporter assays use an easily measured gene product as a stand-in for the process of interest.

Assay [2] concerns the target T2, mineralocorticoid receptor (MR) (Homo sapiens, UniProt P08235).
T2 sequence (P08235 726-984): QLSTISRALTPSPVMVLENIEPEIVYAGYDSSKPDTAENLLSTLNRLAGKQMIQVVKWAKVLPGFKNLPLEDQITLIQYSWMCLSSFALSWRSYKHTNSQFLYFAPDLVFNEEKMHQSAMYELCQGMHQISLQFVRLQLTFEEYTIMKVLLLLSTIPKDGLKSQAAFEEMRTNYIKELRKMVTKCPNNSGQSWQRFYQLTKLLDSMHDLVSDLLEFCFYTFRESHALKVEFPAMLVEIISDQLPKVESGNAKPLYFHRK
Put plainly: Assay for agonist activity on mineralocorticoid receptor (luciferase reporter, HEK293 cells transfected with pBIND-MR plasmid). To be noted: for EC50: EC50 of agonist activity, HEK293 reporter cells, top concentration 50 µM, read-out: Nuclear receptor enzyme activity (nM) MR; for Target selectivity MR/GR: ratio of EC50 values. How it is done:
(§1) Pharmacological Example 2: Assay for Agonist Activity on Mineralocorticoid Receptor (MR) and Progesterone Receptor (PR)
(§2) Test compound stock solutions: The test compounds (compounds 4, 5, 7, 8, 9, 11, 13, 16, 17, 18, 22, 23, 24, 34, 35, 36, 38, 41, 45, 47, 53, 55, and 59) were accurately weighed, dissolved in DMSO to prepare stock solutions at a concentration of 20 mM, and stored at -20 °C.
(§3) The test compounds were subjected to a 4-fold serial dilution starting from an initial concentration of 50 µ M, generating a 12-point concentration gradient with duplicate wells for each concentration. The blank control consisted of 0.1% DMSO.
(§4) The HEK293 stable cell lines […] transfected with mineralocorticoid receptor (MR) and progesterone receptor (PR) (ICE Bioscience, Lot No. TYP-20220819, TPJ-20220812) were cultured in Dulbecco's Modified Eagle Medium (DMEM) supplemented with 10% fetal bovine serum (FBS) and 200 µ g/ml Hygromycin B in a cell incubator containing 5% CO2 at 37 °C. The spent medium was aspirated, and the cells were washed once with phosphate-buffered saline (PBS). Then, 1 mL of TrypLE™ Express solution was added, and the cells were incubated at 37 °C for approximately 2 min. When the cells detached from the bottom of the cell culture dish, approximately 5 mL of pre-warmed complete medium at 37 °C was added. The cell suspension was gently pipetted with a pipette to dissociate clumped cells. The cell suspension was transferred to a sterile centrifuge tube and centrifuged at 1000 rpm for 5 min to pellet the cells for experiments or subculture..
(§5) HEK293 cells were digested and seeded into 6-cm culture dishes. The pBIND-MR and pBIND-PR plasmids were separately transfected into the HEK293 cells using a transfection reagent, resulting in HEK293 cells successfully transfected with the pBIND-MR and pBIND-PR plasmids, respectively. The cells were resuspended in phenol red-free DMEM medium containing 5% charcoal-stripped serum, counted, and then seeded into 96-well plates. The test compounds were added, and the plates were then incubated in an incubator. The luminescence signal values were measured using a multimode microplate reader following the instructions of the luciferase assay kit. The EC50 values of each test compound were calculated using the nonlinear fitting formula with GraphPad Prism 8.0 software.

For assay [3], the target named is T3, progesterone receptor (PR) (Homo sapiens, UniProt P06401).
T3 sequence (P06401 678-933): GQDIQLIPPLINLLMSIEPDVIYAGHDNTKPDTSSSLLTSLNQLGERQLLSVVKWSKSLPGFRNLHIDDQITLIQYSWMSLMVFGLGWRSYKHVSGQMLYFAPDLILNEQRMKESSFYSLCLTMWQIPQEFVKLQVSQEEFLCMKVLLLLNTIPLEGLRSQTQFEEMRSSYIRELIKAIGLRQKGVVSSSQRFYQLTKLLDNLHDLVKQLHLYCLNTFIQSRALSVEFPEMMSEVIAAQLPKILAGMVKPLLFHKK
Put plainly: Assay for agonist activity on progesterone receptor (luciferase reporter, HEK293 cells transfected with pBIND-PR plasmid). To be noted: for EC50: EC50 of agonist activity, HEK293 reporter cells, top concentration 50 µM, read-out: Nuclear receptor enzyme activity (nM) PR; for Target selectivity PR/GR: ratio of EC50 values. As for the experimental part: as §1, §2, §3, §4, §5

[4] abbreviates: EC50 of agonist activity, HEK293 reporter cells, read-out: Nuclear receptor enzyme activity (nM) GR.
The mark [5] stands for this setting: HEK293 cells transfected with pBIND-GR, luciferase signal, read-out: GR agonist EC50.

Consider `C[C@]12C=CC(=O)C=C1CC[C@H]1[C@@H]3C[C@H]4OC(C5CCC(SC6CCOC6=O)CC5)O[C@@]4(C(=O)CO)[C@@]3(C)C[C@H](O)[C@@]12F` (stereo partly drawn) [Compound 45, (6aS,6bR,7S,8aS,8bS,11aR,12aS,12bS)-6b-Fluoro-7-hydroxy-8b-(2-hydroxyacetyl)-6a,8a-dimethyl-10-(4-((2-oxotetrahydrofuran-3-yl)thio)cyclohexyl)-1,2,6a,6b,7,8,8a,8b,11a,12,12a,12b-dodeca hydro-4H-naphtho[2',1':4,5]indeno[1,2-d][1,3]dioxol-4-one], for which the EC50 in assay [1] (setting [4]) is 1.62 nM; in assay [1] (setting [5]), 1.62 nM; in assay [2], > 50000 nM; in assay [3], > 50000 nM. Also, in assay [2], the “Target selectivity MR/GR” value was > 3.1×10^4. Moreover, the “Target selectivity PR/GR” value in assay [3] is recorded as > 3.1×10^4.
With `C[C@]12C=CC(=O)C=C1[C@@H](F)C[C@H]1[C@@H]3C[C@H]4OC(C5CCN(C(=O)C6COC(=O)C6)CC5)O[C@@]4(C(=O)SCF)[C@@]3(C)C[C@H](O)[C@@]12F` (stereo partly drawn) [Compound 4, S-(Fluoromethyl) (2S,6aS,6bR,7S,8aS,8bS,11aR,12aS,12bS)-2,6b-difluoro-7-hydroxy-6a,8a-dimethyl-4-oxo-10-(1-(5-oxotetrahydrofuran-3-carbonyl)piperidin-4-yl)-1,2,4,6a,6b,7,8,8a,11a,12,12a,12b-dodecahydro-8bH-naphtho[2',1':4,5]indeno[1,2-d][1,3]dioxole-8b-carbothioate], the EC50 in assay [1] (setting [4]) was 11.8 nM; in assay [1] (setting [5]), 11.8 nM; in assay [2], > 50000 nM; in assay [3] it was > 50000 nM. In assay [2], the “Target selectivity MR/GR” value was > 4223. In assay [3], the “Target selectivity PR/GR” value was > 4223.
Regarding `C[C@]12C=CC(=O)C=C1CC[C@H]1[C@@H]3C[C@H]4OC(c5ccc(CNC6CCOC6=O)cc5)O[C@@]4(C(=O)CO)[C@@]3(C)C[C@H](O)[C@@]12Cl` (stereo partly drawn) [Compound 24, (6aS,6bR,7S,8aS,8bS,11aR,12aS,12bS)-6b-Chloro-7-hydroxy-8b-(2-hydroxyacetyl)-6a,8a-dimethyl-10-(4-(((2-oxotetrahydrofuran-3-yl)amino)methyl)phenyl)-1,2,6a,6b,7,8,8a,8b,11a,12,12a,12b-dodecahydro-4H-naphtho[2',1':4,5]indeno[1,2-d][1,3]dioxol-4-one], the EC50 was 1.12 nM in assay [1] (setting [4]), 1.12 nM in assay [1] (setting [5]), > 50000 nM in assay [2] and > 50000 nM in assay [3]. For the same molecule, in assay [2], the “Target selectivity MR/GR” value is > 4.5×10^4. Besides, the “Target selectivity PR/GR” value in assay [3] is recorded as > 4.5×10^4.
For the molecule `C[C@]12C=CC(=O)C=C1CC[C@H]1[C@@H]3C[C@H]4OC(c5ccc(SC6CCOC6=O)cc5)O[C@@]4(C(=O)CO)[C@@]3(C)C[C@H](O)[C@@]12F` (stereo partly drawn) [Compound 41, (6aS,6bR,7S,8aS,8bS,11aR,12aS,12bS)-6b-Fluoro-7-hydroxy-8b-(2-hydroxyacetyl)-6a,8a-dimethyl-10-(4-((2-oxotetrahydrofuran-3-yl)thio)phenyl)-1,2,6a,6b,7,8,8a,8b,11a,12,12a,12b-dodecahydr o-4H-naphtho[2',1':4,5]indeno[1,2-d][1,3]dioxol-4-one], the EC50 in assay [1] (setting [4]) was 6.19 nM; in assay [1] (setting [5]), 6.19 nM; in assay [2] it was > 50000 nM; in assay [3], > 50000 nM. In addition, the “Target selectivity MR/GR” value in assay [2] was > 8077. Also, the “Target selectivity PR/GR” value in assay [3] is > 8077.

The values are drawn from patent EP4635969A1, “NOVEL GLUCOCORTICOID, METHOD FOR PREPARING SAME, AND USE THEREOF” (Tianjin Pharmaceutical Biotechnology Co., Ltd., priority 2022, dated 2024).
